{"source": "paper PMC11862990", "about": "“Utility of 6-aza-2-thiothymine in the synthesis of novel [1,2,4]triazolo[4,3-b][1,2,4]triazin-7-one derivatives: synthesis, structure elucidation, molecular docking and in vitro anti-lung cancer activity” (RSC Advances, 2025)", "key": {"[1]": {"system": "PACA2 (pancreatic cancer cell line)", "experiment": "MTT cytotoxicity assay, PACA2", "format": "cell-based", "details": "Homo sapiens; for cytotoxicity at 100 µg/mL: read-out: (%) Mortality PACA2", "experimental": "Using specific human cancer cell lines, the anti-proliferative effectiveness of compounds 7a–j was evaluated in an in vitro assay. The anti-cancer activity of these compounds (7a–j) on various cancer cell lines, including PC3 (Prostate cell line), A549 (Lung carcinoma), PACA2 (Pancreatic cancer cell line) and BJ1 (normal skin fibroblast), was investigated in this study using the 3-(4,5-dimethylthiazol-2-yl)-2,5-diphenyltetrazolium bromide (MTT) test. Doxorubicin (Dox) was the standard medication used as a positive control.\nIn the initial screening trial, a single dosage concentration of 100 μg ml^−1 was applied for 48 hours. The cytotoxicity of the treated cells was determined by calculating the cell death percentage (% mortality) as a percentage of untreated cells (Table 2).\nAll incubations were performed at 37 °C in a 5% CO2 incubator with a 95% humidified environment (Sheldon, TC2323; Cornelius, OR, USA). 96-well micro titer polypropylene plates were seeded with cells at a density of 10^4 cells per well in complete DMEM media, and the cells were allowed to adhere for 24 hours. After the media was aspirated, the tested compounds were added to the cells in a single dose of 100 μg ml^−1 in DMSO. Each well received 40 μl of MTT salt (2.5 g ml^−1) following a 48 hour incubation period. 200 μl of 10% sodium dodecyl sulfate (SDS) was added to each well after the reaction ended, and any formazan crystals that could have been produced were dissolved by two hours of incubator heating to 37 °C. The amount of formazan product was measured at 595 nm using a microplate reader (Bio-Rad Laboratories, model 3350, California, USA) with a reference wavelength of 690 nm, serving as a backdrop. Rather than the drugs under investigation, the medium was applied to the untreated cells (negative control). The examined compounds were dissolved in dimethylsulfoxide (DMSO), and the final concentration in the cells was less than 0.2%. For each compound and the control, the solvent concentration was the same."}, "[2]": {"system": "BCL-2 gene expression in lung cancer cell lines", "experiment": "qRT-PCR gene expression, BCL-2", "format": "cell-based, human", "details": "treated lung cancer cell lines vs negative control; descending order 7g, Dox, 7a", "procedure": "The RNeasy Mini Kit (Qiagen, Hilden, Germany), augmented with a DNaseI (Qiagen) digestion step, was employed to extract total RNA from lung cancer cell lines following the manufacturer's procedure. The isolated total RNA was treated with one unit of RQ1 RNAse-free DNAse (Invitrogen, Germany) to eliminate DNA remnants, re-suspended in DEPC-treated water, and quantified photometrically at 260 nm. The purity of total RNA was evaluated using the 260/280 nm ratio, which ranged from 1.8 to 2.1.[27]\nFurthermore, integrity was confirmed using ethidium bromide-stained examination of 28S and 18S bands via formaldehyde-containing agarose gel electrophoresis. Aliquots were utilized immediately for reverse transcription (RT); otherwise, they were preserved at −80 °C.\nThe poly(A) + RNA extracted from the lung cancer cell lines was reverse transcribed into the cDNA in a total amount of 20 μl utilizing the Revert Aid TM First Strand cDNA Synthesis Kit (Fermentas, Germany). A total of 5 μg of RNA was utilized with a master mix. The master mix comprised 50 mM MgCl2, 10× RT buffer (50 mM KCl; 10 mM Tris–HCl; pH 8.3), 10 mM of each dNTP, 50 μM oligo-dT primer, 20 IU ribonuclease inhibitor (50 kDa recombinant enzyme to suppress RNase activity), and 50 IU MuLV reverse transcriptase. Each sample mixture was centrifuged for 30 seconds at 1000 g and thereafter transferred to the thermocycler. The RT reaction was conducted at 25 °C for 10 minutes, subsequently at 42 °C for 1 hour, and concluded with a denaturation phase at 99 °C for 5 minutes. Subsequently, the reaction tubes containing RT-prepared samples were rapidly chilled in an ice chamber prior to cDNA amplification via the quantitative real-time polymerase chain reaction (qRT-PCR).\nThe cDNA copy number of lung cancer cell lines was determined using the StepOne™ Real-Time PCR System from Applied Biosystems (Thermo Fisher Scientific, Waltham, MA, USA). […]\nThe reaction protocol was divided into three stages. […] The relative quantification of the target gene to the reference gene was assessed using the 2^−ΔΔCT method.[29–31]"}, "[3]": {"details": "PaCa-2, 100 μg ml^−1, 48 hours, MTT"}}, "note": "Like-named read-outs stand apart in the source and are kept apart here.", "data": [{"compound": "Cc1nn2c(C)nn(-c3ccc([N+](=O)[O-])cc3)c2nc1=O", "note": "[Compound 7a, 3,6-Dimethyl-1-(4-nitrophenyl)-[1,2,4]triazolo[4,3-b][1,2,4]triazin-7(1H)-one]", "values": [{"measurement": "cytotoxicity at 100 µg/mL", "setting": "[1]; [3]", "value": "20.4 ± 0.11", "unit": "%"}, {"measurement": "BCL-2 (anti-apoptotic gene) expression level", "setting": "[2]", "value": "diminished"}]}, {"compound": "COc1ccc(-c2nn(-c3ccccc3)c3nc(=O)c(C)nn23)cc1", "note": "[Compound 7g, 3-(4-Methoxyphenyl)-6-methyl-1-phenyl-[1,2,4]triazolo[4,3-b][1,2,4]triazin-7(1H)-one]", "values": [{"measurement": "cytotoxicity at 100 µg/mL", "setting": "[1]; [3]", "value": "13.4 ± 1.15", "unit": "%"}, {"measurement": "BCL-2 (anti-apoptotic gene) expression level", "setting": "[2]", "value": "diminished"}]}, {"compound": "COc1cccc2c1C(=O)c1c(O)c3c(c(O)c1C2=O)C[C@@](O)(C(=O)CO)C[C@@H]3O[C@H]1C[C@H](N)[C@H](O)[C@H](C)O1", "note": "[Dox, Doxorubicin, reference compound]", "values": [{"measurement": "cytotoxicity at 100 µg/mL", "setting": "[1]; PaCa-2, 48 h", "value": 100, "unit": "%"}, {"measurement": "IC50", "setting": "[1]; PaCa-2, MTT, 48 hour incubation", "value": 52.1, "unit": "µM"}, {"measurement": "BCL-2 (anti-apoptotic gene) expression level", "setting": "[2]", "value": "diminished"}]}]}
